According to patent US5468756A, “Imidazonaphthyridine derivatives” (Kyowa Hakko Kogyo Co., Ltd., priority 1990, dated 1995):

Tests used:
[1] = tested on: platelet activating factor (PAF)-induced mortality; test: Inhibition effect on platelet activating factor (PAF)-induced mortality; assay type: in vivo, male dd mice; conditions: Mus musculus, po, PAF 40 μg/kg i.v., 3 h, read-out: Survival rate of test compound-administered group; for responders at 100 mg/kg: n = 10, control group survival 0-20%; for responders at 50 mg/kg: 50 mg/kg p.o., n = 10, control group survival 0%
Method: e) Inhibition effect on platelet activating factor (PAF)-induced mortality
The experiment was carried out by a minor modification of a known method [Br. J. Pharmacol., 79, 595 (1983)]. Groups each consisting of 10 male dd mice (weighing 28 to 32 g) were used, and 50 or 100 mg/kg of the test compound or a saline (control) was orally administered. One hour after the administration of test compound, 40 μg/kg of PAF (manufactured by Avanti Polar Lipids Co., Ltd.) was intravenously administered. Three hours after PAF injection, the mortality of the animals was observed.

[2] = tested on: passive Schultz-Dale reaction; test: Effect on passive Schultz-Dale reaction (broncho-dilative activity), sensitized tracheal strips contracted by antigen; design: species or system male Hartley guinea pigs; conditions: guinea pig tracheal zig-zag strips, 37° C., antigen egg white albumin 1 μg/ml; read-out: Passive Schultz-Dale reaction IC50 (concentration of 50% relaxation rate)
Method: d) Effect on passive Schultz-Dale reaction (broncho-dilative activity)
Male Hartley guinea pigs weighing 350 to 500 g were passively sensitized by intraperitoneal injection of rabbit anti-OA serum prepared in advance by the method of Koda et al. [Folia Pharmacol., Japon 66, 237, (1970)]. After 24 hours, the guinea pigs were stunned and exsanguinated, and then tracheae were removed. The zig-zag strips of the tracheae were prepared by the method of Emmerson and Mackay [J. Pharm. Pharmacol., 31, 798, (1979)]. The strips were suspended in Krebs-Henseleit solution at 37° C. under aeration of a mixed gas of 95% oxygen and 5% carbon dioxide, and equilibrated for one hour. Then, antigen (egg white albumin) was introduced in the solution (final concentration; 1 μg/ml), and the contraction was measured by isotonictransducer (TD-112s, made by Nihon Kohden K.K., Japan) and recorded on a recorder (Type 3066, made by Yokogawa-Hokushin Denki, K.K. Japan). After the contraction curves reached a plateau, the test compounds were successively added in order to get cumulative concentration-relaxation curves. The concentration of 50% relaxation rate (IC50) was calculated from the regression line, which was obtained from the cumulative concentration-relaxation curves.

ddY strain male mice = test: Acute toxicity (Minimum Lethal Dose); assay type: in vivo
Method: The test compound was orally and intraperitoneally administered to ddY strain male mice weighing 20 to 25 g. MLD (Minimum Lethal Dose) was determined by observing the mortality for […] after the administration.

[3] = tested on: carrageenin-induced paw edema; test: Effect on carrageenin-induced paw edema; assay type: in vivo, male Wistar rats; conditions: Rattus norvegicus, 3 hours after carrageenin, read-out: Suppression rate for paw swelling, carrageenin-induced edema; for inhibition in vivo at 100 mg/kg: p.o.; for inhibition in vivo at 50 mg/kg: po, 50 mg/kg P.O.
Method: a) Effect on carrageenin-induced paw edema
(§1) Male Wistar rats weighing 150 to 160 g (n=3-5) were used in the experiment. After the right hind paw volume was measured with the plethysmograph (TK-101; Unicom Co., Ltd.), the test compound (25, 50 or 100 mg/kg) was orally administered. After one hour, 0.1 ml of 1% carrageenin (λ-carrageenin; PICNIN-A®, Zushi Kagaku Co., Ltd.) was subcutaneously injected into the right hind paw footpad. Three hours after the injection of carrageenin, the right hind paw volume was measured and the swelling rate was determined by the following equation 1. [formula] Vt: the right hind paw volume measured 3 hours after the injection of carrageenin
(§2) Vo: the right hind paw volume measured prior to the injection of carrageenin
(§3) The suppression rate was calculated by the following equation 2. [formula] Swt: the swelling rate of the group administered with the test compound Swc: the swelling rate of the control group administered with physiological saline solution

[4] = tested on: zymosan-induced paw edema; test: Effect on zymosan-induced paw edema; assay type: in vivo, male Wistar rats; conditions: Rattus norvegicus, po, read-out: Suppression rate for paw swelling, zymosan-induced edema; for inhibition in vivo at 25 mg/kg: 25 mg/kg P.O.
Method: as §1, §2, §3
b) Effect on zymosan-induced paw edema
The experiment was carried out in the same manner as in the carrageenin-induced paw edema test except that 1% zymosan (Zymosan A®; Sigma Chemical Co.) was used in place of 1% carrageenin and the right hind paw volume was measured […] the injection of the edema-inducing substance instead of 3 hours. The swelling rate and the suppression rate were calculated by equation 1 and equation 2, respectively.

SMILES | responders at 100 mg/kg [1] [%] | IC50 [2] [µM] | MLD (Minimum Lethal Dose) i.p. (ddY strain male mice) [mg/kg] | MLD (Minimum Lethal Dose) p.o. (ddY strain male mice) [mg/kg] | inhibition in vivo at 100 mg/kg [3] [%] | inhibition in vivo at 25 mg/kg [4] [%] | inhibition in vivo at 100 mg/kg [4] [%] | inhibition in vivo at 50 mg/kg [3] [%] | responders at 50 mg/kg [1] [%]
CC(c1ccccc1)n1cnc2c3cccnc3n(-c3ccccc3)c(=O)c21 (stereo not drawn) [Compound 16, 3-(α-Methyl)benzyl-5-phenyl-3H-imidazo[4,5-c][1,8]naphthyridin-4(5H)-one] | 0 | > 10 | > 100 | > 300 | 3.5 |  |  |  | 
O=C(O)Cn1cnc2c3cccnc3n(-c3ccccc3)c(=O)c21 [Compound 17, 3-Carboxymethyl-5-phenyl-3H-imidazo[4,5-c][1,8]naphthyridin-4(5H)-one] | 30 | > 10 | > 100 | > 300 | 10.8 |  |  |  | 
Cc1nc2c([nH]1)c(=O)n(-c1ccccc1)c1ncccc21 [Compound 18, 2-Methyl-5-phenyl-3H-imidazo[4,5-c][1,8]naphthyridin-4(5H)-one] | 90 | > 10 |  |  | 23.7 | 26.7 |  |  | 
O=c1c2[nH]c(O)nc2c2cccnc2n1-c1ccccc1 [Compound 21, 2-Hydroxy-5-phenyl-3H-imidazo[4,5-c][1,8]naphthyridin-4(5H)-one] | 30 | 2 | > 100 | > 300 | 2.3 |  |  |  | 
COc1ccc(-n2c(=O)c3[nH]cnc3c3cccnc32)cc1 [Compound 22, 5-(4-Methoxy)phenyl-3H-imidazo[4,5-c][1,8]naphthyridin-4(5H)-one] | 30 | > 10 |  |  | 1.9 |  | 0 |  | 
COc1cccc(-n2c(=O)c3[nH]cnc3c3cccnc32)c1 [Compound 23, 5-(3-Methoxy)phenyl-3H-imidazo[4,5-c][1,8]naphthyridin-4(5H)-one] | 10 | > 10 |  |  | 0 | 18.1 |  |  | 
Cc1ccc(-n2c(=O)c3[nH]cnc3c3cccnc32)cc1 [Compound 24, 5-(4-Methyl)phenyl-3H-imidazo[4,5-c][1,8]naphthyridin-4(5H)-one] | 40 | > 10 |  |  |  |  |  | 0.3 | 
Cc1cccc(-n2c(=O)c3[nH]cnc3c3cccnc32)c1 [Compound 25, 5-(3-Methyl)phenyl-3H-imidazo[4,5-c][1,8]naphthyridin-4(5H)-one] | 60 | > 10 |  |  | 13.8 |  |  |  | 
O=c1c2[nH]cnc2c2cccnc2n1-c1cccc(Cl)c1 [Compound 26, 5-(3-Chloro)phenyl-3H-imidazo[4,5-c][1,8]naphthyridin-4(5H)-one] | 90 | > 10 |  |  | 15.2 |  |  |  | 
CCCCn1c(=O)c2[nH]cnc2c2cccnc21 [Compound 27, 5-n-Butyl-3H-imidazo[4,5-c][1,8]naphthyridin-4(5H)-one] | 60 | > 10 |  |  | 8.6 |  |  |  | 
CCCCn1c(=O)c2c(ncn2C)c2cccnc21 [Compound 28, 5-n-Butyl-3-methyl-3H-imidazo[4,5-c][1,8]naphthyridin-4(5H)-one] | 70 | 4.5 |  |  | 20.6 | 26.7 |  |  | 
CCCCCCn1cnc2c3cccnc3n(-c3ccccc3)c(=O)c21 [Compound 30, 3-Hexyl-5-phenyl-3H-imidazo[4,5-c][1,8]naphthyridin-4(5H)-one] | 90 |  | > 100 | > 300 | 48.5 | 33.5 |  |  | 
O=c1c2c(ncn2CC2CCCCC2)c2cccnc2n1-c1ccccc1 [Compound 37, 3-Cyclohexylmethyl-5-phenyl-3H-imidazo[4,5-c][1,8]naphthyridin-4(5H)-one] | 90 | 6.2 |  |  |  | 49.8 |  | 34.7 | 
O=c1c2c(ncn2Cc2ccc(Cl)cc2)c2cccnc2n1-c1ccccc1 [Compound 40, 3-(4-Chlorophenyl)methyl-5-phenyl-3H-imidazo[4,5-c][1,8]naphthyridin-4(5H)-one] | 40 |  |  |  | 21.3 | 42.8 |  |  | 
Cc1cccc(Cn2cnc3c4cccnc4n(-c4ccccc4)c(=O)c32)c1 [Compound 41, 3-(3-Methylphenyl)methyl-5-phenyl-3H-imidazo[4,5-c][1,8]naphthyridin-4(5H)-one] |  | 10 |  |  | 47.7 | 33.3 |  |  | 80
O=c1c2c(ncn2Cc2ccc([N+](=O)[O-])cc2)c2cccnc2n1-c1ccccc1 [Compound 42, 3-(4-Nitrophenyl)methyl-5-phenyl-3H-imidazo[4,5-c][1,8]naphthyridin-4(5H)-one] |  |  |  |  | 35.9 | 45.6 |  |  | 100
Cc1ccc(Cn2cnc3c4cccnc4n(-c4ccccc4)c(=O)c32)cc1 [Compound 43, 3-(4-Methylphenyl)methyl-5-phenyl-3H-imidazo[4,5-c][1,8]naphthyridin-4(5H)-one] | 70 |  | > 100 | > 300 | 39.2 | 56.2 |  |  | 
COc1ccc(Cn2cnc3c4cccnc4n(-c4ccccc4)c(=O)c32)cc1 [Compound 45, 3-(4-Methoxyphenyl)methyl-5-phenyl-3H-imidazo[4,5-c][1,8]naphthyridin-4(5H)-one] | 40 |  |  |  | 37.8 | 66.9 |  |  | 
COc1cccc(Cn2cnc3c4cccnc4n(-c4ccccc4)c(=O)c32)c1 [Compound 46, 3-(3-Methoxyphenyl)methyl-5-phenyl-3H-imidazo[4,5-c][1,8]naphthyridin-4(5H)-one] | 10 |  |  |  |  | 43.5 |  |  | 
O=c1c2c(ncn2Cc2cccc([N+](=O)[O-])c2)c2cccnc2n1-c1ccccc1 [Compound 47, 3-(3-Nitrophenyl)methyl-5-phenyl-3H-imidazo[4,5-c][1,8]naphthyridin-4(5H)-one] | 0 |  | > 100 | > 300 | 33.1 | 35.7 |  |  | 
Cc1cccc(-n2c(=O)c3c(ncn3Cc3ccccc3)c3cccnc32)c1 [Compound 58, 5-(3-Methylphenyl)-3-benzyl-3H-imidazo[4,5-c][1,8]naphthyridin-4(5H)-one] | 100 |  | > 100 | > 300 |  | 47 |  | 36.3 | 
O=c1c2c(ncn2Cc2ccccc2)c2cccnc2n1-c1cccc(Cl)c1 [Compound 59, 5-(3-Chlorophenyl)-3-benzyl-3H-imidazo[4,5-c][1,8]naphthyridin-4(5H)-one] | 70 |  | > 100 | > 300 |  | 47.9 |  | 36.4 | 
